Target: GCase enzyme (Cerezyme®, recombinant human GCase) (Homo sapiens, UniProt P04062, R534H)
Conditions: read-out: GCase Ki; from IC50 by Cheng-Prusoff equation, GCase Km 7.9 mM, pH 7.0
Procedure: Various concentrations of test compounds were prepared in DMSO and then diluted into buffer consisting of 50 mM sodium phosphate 0.25% w/v sodium taurodexoycholate, pH 7.0. […] The reaction solution consisted of 25 μL of 6 mM 4-methylumbelliferone-β-D glucopyranoside in 10% DMSO in the same buffer, 12.5 μL of enzyme and 12.5 μL of various concentrations of test compound diluted in buffer. […] The reaction was initiated by addition of enzyme and allowed to proceed for 20 min at 37° C. to assess GCase activity. […] IC50 values were determined by fitting the data to a log[inhibitor concentration] versus response curve using GraphPad Prism.

Chain of GCase enzyme (Cerezyme®, recombinant human GCase) (P04062 40-536 R534H limits assumed): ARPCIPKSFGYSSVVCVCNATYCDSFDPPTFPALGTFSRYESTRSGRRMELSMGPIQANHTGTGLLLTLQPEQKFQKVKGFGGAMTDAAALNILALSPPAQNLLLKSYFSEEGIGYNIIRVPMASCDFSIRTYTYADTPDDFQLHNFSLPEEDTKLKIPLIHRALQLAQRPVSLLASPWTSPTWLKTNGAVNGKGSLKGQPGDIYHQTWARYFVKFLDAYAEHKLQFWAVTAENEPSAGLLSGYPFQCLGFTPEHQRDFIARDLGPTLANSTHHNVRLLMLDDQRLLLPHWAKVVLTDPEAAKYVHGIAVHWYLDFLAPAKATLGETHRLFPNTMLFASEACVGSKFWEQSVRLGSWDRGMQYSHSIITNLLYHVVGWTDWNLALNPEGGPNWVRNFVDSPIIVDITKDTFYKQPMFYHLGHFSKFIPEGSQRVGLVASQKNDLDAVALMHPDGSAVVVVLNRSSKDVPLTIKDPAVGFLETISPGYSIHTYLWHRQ

SMILES	Ki [nM]
O[C@H]1[C@H](O)CNC2(CC2)[C@@H]1C(F)F [Example 4, (6R,7R,8S)-8-(difluoromethyl)-4-azaspiro[2.5]octane-6,7-diol]	8
C[C@@H]1[C@@H](O)[C@H](O)CNC12CC2 [Example 1, (6R,7R,8S)-8-methyl-4-azaspiro[2.5]octane-6,7-diol]	2.6
